Experiments:
Format in all cases: functional
786-0 [1] = experiment: inhibition of the growth of renal cancer(786-0) cell line; conditions: Homo sapiens
786-0 [2] = experiment: Inhibition of the growth of renal cancer(786-0) cell line at 0.01 uM; conditions: Homo sapiens
A549 [3] = experiment: inhibition of the growth of non-small-cell lung cancer (A549/ATCC) cell line; conditions: Homo sapiens
A549 [4] = experiment: Inhibition of the growth of non-small-cell lung cancer (A549/ATCC) cell line at 0.01 uM; conditions: Homo sapiens
CAKI-1 [5] = experiment: inhibition of the growth of renal cancer(CAKI-1) cell line; conditions: Homo sapiens
CAKI-1 [6] = experiment: Inhibition of the growth of renal cancer(CAKI-1) cell line at 0.01 uM; conditions: Homo sapiens
[7] = molecular target: T1, Bifunctional dihydrofolate reductase-thymidylate synthase (Toxoplasma gondii, UniProt Q07422); experiment: Inhibitory activity against dihydrofolate reductase(DHFR) from Toxoplasma gondii
T1 sequence (Q07422 whole entry): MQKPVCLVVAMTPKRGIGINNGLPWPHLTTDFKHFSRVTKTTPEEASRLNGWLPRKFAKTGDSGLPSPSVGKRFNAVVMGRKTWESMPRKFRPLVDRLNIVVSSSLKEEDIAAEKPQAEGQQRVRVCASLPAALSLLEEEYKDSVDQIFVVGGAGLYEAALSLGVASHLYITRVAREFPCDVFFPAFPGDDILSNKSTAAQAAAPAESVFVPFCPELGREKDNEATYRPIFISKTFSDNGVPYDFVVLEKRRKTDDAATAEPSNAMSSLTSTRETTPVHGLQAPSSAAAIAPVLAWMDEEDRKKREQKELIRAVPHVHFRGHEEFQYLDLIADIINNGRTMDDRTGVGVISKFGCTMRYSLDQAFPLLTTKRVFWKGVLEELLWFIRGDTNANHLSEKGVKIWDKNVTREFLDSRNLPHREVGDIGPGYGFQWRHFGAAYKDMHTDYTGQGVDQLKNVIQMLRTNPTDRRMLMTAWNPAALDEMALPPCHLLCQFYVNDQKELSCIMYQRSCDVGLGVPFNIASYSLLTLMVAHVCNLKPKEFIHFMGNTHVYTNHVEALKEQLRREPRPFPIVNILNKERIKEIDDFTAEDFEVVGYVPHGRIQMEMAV

Dihydrofolate reductase = molecular target: T2, Dihydrofolate reductase (Rattus norvegicus, UniProt Q920D2); experiment: Inhibitory activity against dihydrofolate reductase(DHFR) from rat liver
T2 sequence (Q920D2 whole entry): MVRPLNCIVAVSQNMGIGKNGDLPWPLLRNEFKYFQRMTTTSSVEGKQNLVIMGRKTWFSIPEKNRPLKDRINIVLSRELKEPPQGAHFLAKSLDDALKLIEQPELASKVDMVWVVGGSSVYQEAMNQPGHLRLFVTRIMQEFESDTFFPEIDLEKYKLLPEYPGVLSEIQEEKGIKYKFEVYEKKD

DU-145 [8] = experiment: Inhibition of the growth of prostate cancer(DU-145) cell line at 0.01 uM; conditions: Homo sapiens
DU-145 [9] = experiment: inhibition of the growth of prostate cancer(DU-145) cell line; conditions: Homo sapiens
HCT-15 [10] = experiment: Inhibition of the growth of colon cancer(HCT-15) cell line at 0.01 uM; conditions: Homo sapiens
HCT-15 [11] = experiment: inhibition of the growth of colon cancer(HCT-15) cell line; conditions: Homo sapiens
HCT-116 [12] = experiment: inhibition of the growth of colon cancer(HCT116) cell line; conditions: Homo sapiens
HCT-116 [13] = experiment: Inhibition of the growth of colon cancer(HCT116) cell line at 0.01 uM; conditions: Homo sapiens
IGROV-1 [14] = experiment: inhibition of the growth of ovarian cancer(IGROVI) cell line; conditions: Homo sapiens
KM12 = experiment: inhibition of the growth of colon cancer(KM-12) cell line. value in parentheses is percent inhibition at 0.01 uM; conditions: Homo sapiens
M14 [15] = experiment: Inhibition of the growth of melanoma cancer (M14) cell line at 0.01 uM; conditions: Homo sapiens
MOLT-4 = experiment: inhibition of the growth of leukemia (MOLT-4) cell line; conditions: Homo sapiens
NCI/ADR-RES [16] = experiment: inhibition of the growth of breast cancer (MCF7/ADR-RES) cell line; conditions: Homo sapiens
NCI/ADR-RES [17] = experiment: Inhibition of the growth of breast cancer (MCF7/ADR-RES) cell line at 0.01 uM; conditions: Homo sapiens
MDA-MB-435 [18] = experiment: Inhibition of the growth of breast cancer (MDA-MB-435) cell line; conditions: Homo sapiens
M14 [19] = experiment: inhibition of the growth of melanoma cancer (M14) cell line; conditions: Homo sapiens
MDA-N [20] = experiment: inhibition of the growth of breast cancer(MDA-N) cell line; conditions: Homo sapiens
MDA-N [21] = experiment: Inhibition of the growth of breast cancer(MDA-N) cell line at 0.01 uM; conditions: Homo sapiens
MDA-MB-435 [22] = experiment: Inhibition of the growth of breast cancer (MDA-MB-435) cell line at 0.01 uM; conditions: Homo sapiens
MCF7 = experiment: inhibition of the growth of breast cancer (MCF-7) cell line; conditions: Homo sapiens
NCI-H460 [23] = experiment: inhibition of the growth of non-small-cell lung cancer (NCI-H460) cell line; conditions: Homo sapiens
NCI-H522 [24] = experiment: inhibition of the growth of non-small-cell lung cancer (NCI-H522) cell line; conditions: Homo sapiens
NCI-H522 [25] = experiment: Inhibition of the growth of non-small-cell lung cancer (NCI-H522) cell line at 0.01 uM; conditions: Homo sapiens
NCI-H322M [26] = experiment: inhibition of the growth of non-small-cell lung cancer (NCI-H322M) cell line; conditions: Homo sapiens
NCI-H322M [27] = experiment: Inhibition of the growth of non-small-cell lung cancer (NCI-H322M) cell line at 0.01 uM; conditions: Homo sapiens
OVCAR-8 [28] = experiment: inhibition of the growth of ovarian cancer(OVCAR-8) cell line; conditions: Homo sapiens
NCI-H460 [29] = experiment: Inhibition of the growth of non-small-cell lung cancer (NCI-H460) cell line at 0.01 uM; conditions: Homo sapiens
NCI-H23 [30] = experiment: inhibition of the growth of non-small-cell lung cancer (NCI-H23) cell line; conditions: Homo sapiens
NCI-H23 [31] = experiment: Inhibition of the growth of non-small-cell lung cancer (NCI-H23) cell line at 0.01 uM; conditions: Homo sapiens
RPMI-8226 [32] = experiment: Inhibition of the growth of leukemia (RPMI-8226) cell line at 0.01 uM; conditions: Homo sapiens
RPMI-8226 [33] = experiment: inhibition of the growth of leukemia (RPMI-8226) cell line; conditions: Homo sapiens
SF-268 [34] = experiment: Inhibition of the growth of CNS cancer(SF-268) cell line at 0.01 uM; conditions: Homo sapiens
SF-268 [35] = experiment: inhibition of the growth of CNS cancer(SF-268) cell line; conditions: Homo sapiens
SF-295 [36] = experiment: inhibition of the growth of CNS cancer(SF-295) cell line; conditions: Homo sapiens
SF-295 [37] = experiment: Inhibition of the growth of CNS cancer(SF-295) cell line at 0.01 uM; conditions: Homo sapiens
SF-539 [38] = experiment: Inhibition of the growth of CNS cancer(SF-539) cell line at 0.01 uM; conditions: Homo sapiens
SNB-19 [39] = experiment: inhibition of the growth of CNS cancer(SNB-19) cell line; conditions: Homo sapiens
SNB-19 [40] = experiment: Inhibition of the growth of CNS cancer(SNB-19) cell line at 0.01 uM; conditions: Homo sapiens
SF-539 [41] = experiment: inhibition of the growth of CNS cancer(SF-539) cell line; conditions: Homo sapiens
SR [42] = experiment: inhibition of the growth of leukemia(SR) cell line; conditions: Homo sapiens
SR [43] = experiment: Inhibition of the growth of leukemia(SR) cell line at 0.01 uM; conditions: Homo sapiens
SK-MEL-5 [44] = experiment: inhibition of the growth of melanoma cancer (SK-MEL-5) cell line; conditions: Homo sapiens
SK-MEL-5 [45] = experiment: Inhibition of the growth of melanoma cancer (SK-MEL-5) cell line at 0.01 uM; conditions: Homo sapiens
UO-31 [46] = experiment: inhibition of the growth of renal cancer(UO-31) cell line; conditions: Homo sapiens
UO-31 [47] = experiment: Inhibition of the growth of renal cancer(UO-31) cell line at 0.01 uM; conditions: Homo sapiens
IGROV-1 [48] = experiment: Inhibition of the growth of ovarian cancer(IGROVI) cell line at 0.01 uM; conditions: Homo sapiens
OVCAR-8 [49] = experiment: Inhibition of the growth of ovarian cancer(OVCAR-8) cell line at 0.01 uM; conditions: Homo sapiens

Compound: CN(c1ccc2ccccc2c1)c1ccc2nc(N)nc(N)c2n1
- GI50 (786-0 [1]): < 10 nM
- inhibition at 0.01 µM (786-0 [2]): 54%
- GI50 (A549 [3]): < 10 nM
- inhibition at 0.01 µM (A549 [4]): 65%
- GI50 (CAKI-1 [5]): < 10 nM
- inhibition at 0.01 µM (CAKI-1 [6]): 74%
- IC50 [7]: 14.5 nM
- IC50 (Dihydrofolate reductase): 9.9 nM
- inhibition at 0.01 µM (DU-145 [8]): 51%
- GI50 (DU-145 [9]): < 10 nM
- inhibition at 0.01 µM (HCT-15 [10]): 69%
- GI50 (HCT-15 [11]): < 10 nM
- GI50 (HCT-116 [12]): < 10 nM
- inhibition at 0.01 µM (HCT-116 [13]): 85%
- GI50 (IGROV-1 [14]): < 10 nM
- GI50 (KM12): 10 nM
- inhibition at 0.01 µM (M14 [15]): 54%
- GI50 (MOLT-4): 20 nM
- GI50 (NCI/ADR-RES [16]): < 10 nM
- inhibition at 0.01 µM (NCI/ADR-RES [17]): 100%
- GI50 (MDA-MB-435 [18]): < 10 nM
- GI50 (M14 [19]): < 10 nM
- GI50 (MDA-N [20]): < 10 nM
- inhibition at 0.01 µM (MDA-N [21]): 75%
- inhibition at 0.01 µM (MDA-MB-435 [22]): 66%
- GI50 (MCF7): 30 nM
- GI50 (NCI-H460 [23]): < 10 nM
- GI50 (NCI-H522 [24]): < 10 nM
- inhibition at 0.01 µM (NCI-H522 [25]): 60%
- GI50 (NCI-H322M [26]): < 10 nM
- inhibition at 0.01 µM (NCI-H322M [27]): 56%
- GI50 (OVCAR-8 [28]): < 10 nM
- inhibition at 0.01 µM (NCI-H460 [29]): 79%
- GI50 (NCI-H23 [30]): < 10 nM
- inhibition at 0.01 µM (NCI-H23 [31]): 63%
- inhibition at 0.01 µM (RPMI-8226 [32]): 66%
- GI50 (RPMI-8226 [33]): < 10 nM
- inhibition at 0.01 µM (SF-268 [34]): 52%
- GI50 (SF-268 [35]): < 10 nM
- GI50 (SF-295 [36]): < 10 nM
- inhibition at 0.01 µM (SF-295 [37]): 63%
- inhibition at 0.01 µM (SF-539 [38]): 66%
- GI50 (SNB-19 [39]): < 10 nM
- inhibition at 0.01 µM (SNB-19 [40]): 62%
- GI50 (SF-539 [41]): < 10 nM
- GI50 (SR [42]): < 10 nM
- inhibition at 0.01 µM (SR [43]): 57%
- GI50 (SK-MEL-5 [44]): < 10 nM
- inhibition at 0.01 µM (SK-MEL-5 [45]): 77%
- GI50 (UO-31 [46]): < 10 nM
- inhibition at 0.01 µM (UO-31 [47]): 54%
- inhibition at 0.01 µM (IGROV-1 [48]): 65%
- inhibition at 0.01 µM (OVCAR-8 [49]): 95%
